Values of other authors in US20080139609A1, “GRANISETRON COMPOSITIONS” (priority 2006, published 2008).

Key:
[1] = in water and in normal saline at 20° C.
[2] = test system: other serotonin receptors; conditions: selective 5-HT3 receptor antagonist

Solubility [1]	Affinity for other serotonin receptors [2]	Compound
readily soluble		CN1C2CCCC1CC(NC(=O)c1nn(C)c3ccccc13)C2.Cl (stereo not drawn) [Granisetron hydrochloride, endo-N-(9-methyl-9-azabicyclo[3.3.1]non-3-yl)-1-methyl-1H-indazole-3-carboxamide hydrochloride]
	little or no affinity	CN1C2CCCC1CC(NC(=O)c1nn(C)c3ccccc13)C2 (centres unmarked) [Granisetron]
